Usually inhibition stands for the drop in the measured response relative to a control, in per cent. A word on the IC50: it is the concentration at which inhibition is half-maximal. A higher IC50 goes with a need for much substance.

The target in test [1] is JMJD3 (h) (Homo sapiens, UniProt O15054). Description: Epigenetic enzyme assay, Demethylases (KDMs). The format is biochemical. Conditions: for inhibition at 10 µM: read-out: % Inhibition of Control Values.
Test [2] concerns Catechol-O-Methyl Transferase (COMT). Put plainly: Catechol-O-Methyl Transferase (COMT). Conditions: 10 μM; assay year 2015. The test is classed as biochemical, Porcine. On the procedure:
(§1) The in vitro pharmacological studies were conducted by Eurofins PanLab (Taiwan) using the parameters shown in Table 13 with respect to appropriate literature references.

Test [3] deals with H3K9 ac. Description: Cell-based detection methyl modifications. Conditions: read-out: % Inhibition of Control Values.
Test [4] addresses T1, CBX6 (h) chromodomain (Homo sapiens, UniProt O95503).
T1 construct: Recognition and specificity determinants of the human cbx chromodomains; Eurofins CEREP (France), contract laboratory
T1 sequence (O95503 11-69 limits assumed): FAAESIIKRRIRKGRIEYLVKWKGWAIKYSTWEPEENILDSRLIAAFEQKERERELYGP
Put plainly: Epigenetic binding assay, Chromodomain. Conditions: read-out: % Inhibition of Control Specific Binding.

The target of test [5] is T2, Myeloperoxidase (Homo sapiens, UniProt P05164).
T2 construct: Human PMN leukocytes; from tissue; host or cells: human PMN leukocytes
T2 sequence (P05164 49-745): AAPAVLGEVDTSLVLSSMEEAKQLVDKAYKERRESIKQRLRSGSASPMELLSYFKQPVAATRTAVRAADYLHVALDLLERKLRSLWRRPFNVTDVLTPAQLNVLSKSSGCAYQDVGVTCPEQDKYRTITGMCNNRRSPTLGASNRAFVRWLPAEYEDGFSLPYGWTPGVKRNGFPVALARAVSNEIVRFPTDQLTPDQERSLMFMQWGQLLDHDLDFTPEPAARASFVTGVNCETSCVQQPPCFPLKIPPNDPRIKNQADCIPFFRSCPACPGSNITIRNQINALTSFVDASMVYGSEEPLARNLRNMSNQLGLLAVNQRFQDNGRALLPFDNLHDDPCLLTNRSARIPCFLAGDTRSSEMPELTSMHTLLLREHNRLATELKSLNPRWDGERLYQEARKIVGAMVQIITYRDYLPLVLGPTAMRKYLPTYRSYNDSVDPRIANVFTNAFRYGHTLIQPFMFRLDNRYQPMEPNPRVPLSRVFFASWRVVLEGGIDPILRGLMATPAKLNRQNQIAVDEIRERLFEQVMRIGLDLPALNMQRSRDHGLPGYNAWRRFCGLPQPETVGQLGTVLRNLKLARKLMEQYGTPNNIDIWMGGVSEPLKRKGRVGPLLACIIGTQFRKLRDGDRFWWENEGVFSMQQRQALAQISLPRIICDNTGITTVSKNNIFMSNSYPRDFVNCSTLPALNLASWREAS
Put plainly: Myeloperoxidase. The test is classed as biochemical. On the procedure: as §1

Test [6] addresses T3, FALZ (h) bromodomain (Homo sapiens, UniProt Q12830).
T3 construct: Bromodomain; Eurofins CEREP (France), contract laboratory
Description: Epigenetic binding assay, Bromodomain. Particulars: 10 μM; read-out: % Inhibition of Control Specific Binding.

In test [7] the target is T4, sirtuin 2 (h) (inhibitor effect) (Homo sapiens, UniProt Q8IXJ6).
T4 sequence (Q8IXJ6 1-389): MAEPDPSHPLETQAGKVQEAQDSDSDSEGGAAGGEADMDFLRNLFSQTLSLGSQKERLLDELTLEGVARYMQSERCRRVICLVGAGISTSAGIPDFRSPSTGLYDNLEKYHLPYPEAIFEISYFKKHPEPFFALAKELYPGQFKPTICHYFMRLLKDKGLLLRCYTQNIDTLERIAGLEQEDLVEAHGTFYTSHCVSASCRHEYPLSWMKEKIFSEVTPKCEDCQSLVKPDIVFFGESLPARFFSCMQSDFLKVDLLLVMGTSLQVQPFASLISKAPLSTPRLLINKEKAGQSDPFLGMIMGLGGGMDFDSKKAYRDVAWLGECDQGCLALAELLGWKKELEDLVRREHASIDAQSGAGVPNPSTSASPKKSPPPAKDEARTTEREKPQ
Description: Epigenetic enzyme assay, Sirtuins. The test is classed as biochemical. Conditions: 10 μM; read-out: % Inhibition of Control Values.

Test [8] addresses HDAC5 (h) (Homo sapiens, UniProt Q9UQL6). Description: Epigenetic enzyme assay, Histone deacetylase (HDACs). The format is biochemical. Conditions: read-out: % Inhibition of Control Values.
In test [9] the target is EZH1/EED/SUZ12 (h) (Homo sapiens, UniProt Q92800). Put plainly: Epigenetic enzyme assay, Methyltransferases (MTs). The format is biochemical. Particulars: read-out: % Inhibition of Control Values.
Test [10] concerns the target LSD1 (h) (Homo sapiens, UniProt O60341). Put plainly: Epigenetic enzyme assay, Demethylases (KDMs). The format is biochemical. Particulars: read-out: % Inhibition of Control Values.
In test [11] the test system is Rat L6 skeletal muscle cells. Put plainly: [3H]-2-Deoxy-D-glucose uptake. The format is cell-based. Conditions: 10 μM; assay year 2016. On the procedure:
as §1

[12] abbreviates: assay year 2014, read-out: % Control Response.
[13] abbreviates: assay year 2015, read-out: % Control Response.

Like-named read-outs stand apart in the source and are kept apart here.

Chain of JMJD3 (h) (O15054 whole entry): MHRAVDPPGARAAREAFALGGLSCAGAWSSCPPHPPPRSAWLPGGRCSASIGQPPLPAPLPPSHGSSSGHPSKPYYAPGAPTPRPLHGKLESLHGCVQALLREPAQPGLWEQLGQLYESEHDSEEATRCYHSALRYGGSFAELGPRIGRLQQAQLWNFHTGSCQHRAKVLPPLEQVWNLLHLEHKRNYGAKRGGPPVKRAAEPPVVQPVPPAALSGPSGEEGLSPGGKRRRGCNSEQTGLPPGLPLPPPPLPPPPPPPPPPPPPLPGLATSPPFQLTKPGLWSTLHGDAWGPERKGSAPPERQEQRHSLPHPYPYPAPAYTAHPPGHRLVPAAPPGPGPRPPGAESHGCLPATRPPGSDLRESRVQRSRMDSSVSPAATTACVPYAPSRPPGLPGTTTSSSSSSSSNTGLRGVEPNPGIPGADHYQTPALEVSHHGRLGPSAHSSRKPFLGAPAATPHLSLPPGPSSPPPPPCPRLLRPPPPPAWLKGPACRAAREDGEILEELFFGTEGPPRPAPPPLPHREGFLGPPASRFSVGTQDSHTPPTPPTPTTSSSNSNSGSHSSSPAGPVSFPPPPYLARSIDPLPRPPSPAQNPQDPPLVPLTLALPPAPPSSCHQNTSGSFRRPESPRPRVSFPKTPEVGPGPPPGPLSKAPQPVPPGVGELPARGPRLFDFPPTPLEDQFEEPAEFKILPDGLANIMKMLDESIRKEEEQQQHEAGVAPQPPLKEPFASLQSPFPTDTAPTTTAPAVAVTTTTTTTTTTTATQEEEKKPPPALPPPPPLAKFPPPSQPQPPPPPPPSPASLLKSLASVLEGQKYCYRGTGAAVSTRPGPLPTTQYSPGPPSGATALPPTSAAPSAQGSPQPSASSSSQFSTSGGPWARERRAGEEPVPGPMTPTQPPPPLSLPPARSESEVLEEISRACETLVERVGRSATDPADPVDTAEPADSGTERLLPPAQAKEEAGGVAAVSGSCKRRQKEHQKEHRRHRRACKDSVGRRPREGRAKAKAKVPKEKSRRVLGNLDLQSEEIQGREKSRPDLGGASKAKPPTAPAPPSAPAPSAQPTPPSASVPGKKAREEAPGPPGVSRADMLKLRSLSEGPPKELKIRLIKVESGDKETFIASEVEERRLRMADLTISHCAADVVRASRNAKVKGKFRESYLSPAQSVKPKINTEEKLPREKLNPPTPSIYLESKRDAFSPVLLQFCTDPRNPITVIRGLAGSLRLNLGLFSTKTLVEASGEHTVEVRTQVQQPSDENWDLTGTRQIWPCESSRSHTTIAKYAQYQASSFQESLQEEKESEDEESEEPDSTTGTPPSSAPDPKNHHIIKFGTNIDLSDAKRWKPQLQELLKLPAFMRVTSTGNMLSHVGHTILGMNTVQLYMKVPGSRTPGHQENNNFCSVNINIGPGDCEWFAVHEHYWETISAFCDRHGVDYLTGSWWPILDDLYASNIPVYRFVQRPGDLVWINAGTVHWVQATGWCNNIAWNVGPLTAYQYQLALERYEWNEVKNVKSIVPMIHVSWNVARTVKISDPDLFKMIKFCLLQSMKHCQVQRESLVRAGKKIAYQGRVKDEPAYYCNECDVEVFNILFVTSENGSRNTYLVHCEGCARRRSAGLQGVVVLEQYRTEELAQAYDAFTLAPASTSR
Chain of EZH1/EED/SUZ12 (h) (Q92800 whole entry): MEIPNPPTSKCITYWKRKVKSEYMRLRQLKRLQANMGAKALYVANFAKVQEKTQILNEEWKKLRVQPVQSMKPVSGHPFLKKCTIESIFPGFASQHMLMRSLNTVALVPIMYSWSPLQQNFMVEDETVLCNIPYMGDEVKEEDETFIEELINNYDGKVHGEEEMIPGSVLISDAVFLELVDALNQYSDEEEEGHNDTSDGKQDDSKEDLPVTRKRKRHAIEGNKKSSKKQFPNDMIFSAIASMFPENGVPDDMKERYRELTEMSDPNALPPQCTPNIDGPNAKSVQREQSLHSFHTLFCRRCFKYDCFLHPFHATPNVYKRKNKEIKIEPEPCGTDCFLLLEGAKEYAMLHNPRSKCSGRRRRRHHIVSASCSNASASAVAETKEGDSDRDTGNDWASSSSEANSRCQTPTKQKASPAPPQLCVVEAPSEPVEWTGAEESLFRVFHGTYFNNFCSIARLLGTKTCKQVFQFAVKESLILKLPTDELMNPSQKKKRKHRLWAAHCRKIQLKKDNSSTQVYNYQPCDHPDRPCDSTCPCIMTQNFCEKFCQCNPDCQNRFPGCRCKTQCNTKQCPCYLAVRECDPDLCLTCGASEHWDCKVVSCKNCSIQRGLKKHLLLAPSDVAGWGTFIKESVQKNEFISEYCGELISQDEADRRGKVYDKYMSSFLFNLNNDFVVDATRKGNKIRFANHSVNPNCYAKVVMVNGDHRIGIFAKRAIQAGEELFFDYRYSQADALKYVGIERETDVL
Chain of EZH1/EED/SUZ12 (h) (O75530 whole entry partner): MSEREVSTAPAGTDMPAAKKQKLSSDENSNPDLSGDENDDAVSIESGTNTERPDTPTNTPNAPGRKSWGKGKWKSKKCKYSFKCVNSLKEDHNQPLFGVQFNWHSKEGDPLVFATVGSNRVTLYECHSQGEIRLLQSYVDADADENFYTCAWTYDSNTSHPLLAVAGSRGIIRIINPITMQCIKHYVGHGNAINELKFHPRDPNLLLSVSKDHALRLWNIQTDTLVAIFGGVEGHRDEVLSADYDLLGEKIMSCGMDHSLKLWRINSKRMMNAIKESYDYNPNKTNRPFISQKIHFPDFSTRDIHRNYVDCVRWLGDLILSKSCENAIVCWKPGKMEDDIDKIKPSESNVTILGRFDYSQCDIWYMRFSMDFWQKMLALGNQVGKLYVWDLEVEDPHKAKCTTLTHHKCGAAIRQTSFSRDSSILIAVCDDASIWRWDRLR
Chain of EZH1/EED/SUZ12 (h) (Q15022 whole entry partner): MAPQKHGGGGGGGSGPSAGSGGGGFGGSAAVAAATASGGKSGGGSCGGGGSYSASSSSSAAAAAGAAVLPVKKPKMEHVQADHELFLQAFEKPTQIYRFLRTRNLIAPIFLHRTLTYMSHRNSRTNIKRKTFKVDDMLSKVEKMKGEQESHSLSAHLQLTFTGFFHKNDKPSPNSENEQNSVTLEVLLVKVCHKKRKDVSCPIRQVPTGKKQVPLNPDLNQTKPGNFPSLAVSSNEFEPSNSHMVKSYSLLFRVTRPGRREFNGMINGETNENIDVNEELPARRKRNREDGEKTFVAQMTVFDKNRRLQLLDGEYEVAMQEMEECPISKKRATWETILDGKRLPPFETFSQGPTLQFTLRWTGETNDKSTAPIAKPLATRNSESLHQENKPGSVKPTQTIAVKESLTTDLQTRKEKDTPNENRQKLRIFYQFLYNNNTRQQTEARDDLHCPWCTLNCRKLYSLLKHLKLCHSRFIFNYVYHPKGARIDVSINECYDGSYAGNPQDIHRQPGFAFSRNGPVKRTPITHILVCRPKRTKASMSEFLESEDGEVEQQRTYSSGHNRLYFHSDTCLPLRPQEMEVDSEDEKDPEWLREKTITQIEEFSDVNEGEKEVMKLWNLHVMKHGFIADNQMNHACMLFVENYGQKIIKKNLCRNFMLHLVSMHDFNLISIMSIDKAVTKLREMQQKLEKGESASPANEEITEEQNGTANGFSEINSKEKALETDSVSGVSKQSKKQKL
Chain of HDAC5 (h) (Q9UQL6 whole entry): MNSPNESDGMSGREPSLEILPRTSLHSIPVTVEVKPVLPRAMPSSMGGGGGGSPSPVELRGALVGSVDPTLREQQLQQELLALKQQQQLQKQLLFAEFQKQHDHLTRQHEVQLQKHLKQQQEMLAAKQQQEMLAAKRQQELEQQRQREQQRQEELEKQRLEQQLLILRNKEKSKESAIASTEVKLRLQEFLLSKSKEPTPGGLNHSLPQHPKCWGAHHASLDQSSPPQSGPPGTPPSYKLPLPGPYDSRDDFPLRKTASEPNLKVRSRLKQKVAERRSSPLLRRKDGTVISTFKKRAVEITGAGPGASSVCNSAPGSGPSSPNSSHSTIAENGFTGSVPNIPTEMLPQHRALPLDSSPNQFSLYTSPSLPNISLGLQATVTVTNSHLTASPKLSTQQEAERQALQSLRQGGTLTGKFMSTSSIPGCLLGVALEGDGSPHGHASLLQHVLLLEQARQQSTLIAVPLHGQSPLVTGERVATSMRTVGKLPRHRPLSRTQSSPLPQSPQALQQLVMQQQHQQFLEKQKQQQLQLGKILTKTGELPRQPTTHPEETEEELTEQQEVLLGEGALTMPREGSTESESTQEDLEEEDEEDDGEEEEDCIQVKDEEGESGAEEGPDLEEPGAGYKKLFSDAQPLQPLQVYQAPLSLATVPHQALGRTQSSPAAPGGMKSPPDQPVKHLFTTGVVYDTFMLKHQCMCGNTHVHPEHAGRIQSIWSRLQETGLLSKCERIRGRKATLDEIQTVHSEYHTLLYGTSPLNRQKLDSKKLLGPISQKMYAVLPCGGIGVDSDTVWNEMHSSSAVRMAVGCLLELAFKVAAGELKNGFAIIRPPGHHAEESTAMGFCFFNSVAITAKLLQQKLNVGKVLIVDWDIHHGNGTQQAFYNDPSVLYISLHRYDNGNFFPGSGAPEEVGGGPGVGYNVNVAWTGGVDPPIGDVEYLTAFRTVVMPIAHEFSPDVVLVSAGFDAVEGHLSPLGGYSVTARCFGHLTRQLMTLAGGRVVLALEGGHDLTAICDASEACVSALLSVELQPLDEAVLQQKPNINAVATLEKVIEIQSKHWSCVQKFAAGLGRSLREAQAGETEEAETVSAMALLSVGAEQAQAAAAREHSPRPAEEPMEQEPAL

Consider `CC(C)=CCC[C@@H]1C(O)Oc2c(C)cc(O)c3c2[C@H]1CC[C@H]3C` (some centres unmarked) [Compound 2, 5,18-epoxyserrulat-14-en-8,18-diol], for which the inhibition at 10 µM in test [1] (10 μM) is 9%; in test [3] it was 3%; in test [4] it was 27%; in [6] it was 18%; in [7] it was 6%; in test [8], -2%. Further, the inhibition at 10 µM in [9] turned out to be 3%; in [10], 10%. Further, in test [2], the “% Control Response” value was −1%. The remaining activity at 10 µM was determined as 5% in test [5] (setting [12]) and 1% in [5] (setting [13]).
Regarding `CC(C)=CCC[C@@H]1COc2c(C)cc(O)c3c2[C@H]1CC[C@H]3C` [Compound 3, 5,18-epoxy-8-hydroxyserrulat-14-ene], the inhibition at 10 µM in test [1] (10 μM) is 11%; in [3] it was -1%; in test [4] it was 58%; in [6], 5%; in test [7], -19%; in [8], -1%. Further, the inhibition at 10 µM in test [9] was -12%; in test [10], -3%. The “% Control Response” value in test [2] was 3%. In test [11], the “% Control Response, agonist (increase in 2-DG uptake relative to insulin response)” value is listed as −52%. Further, in test [5] (setting [13]), the remaining activity at 10 µM was -7%.
In the case of `CC(C)=CCC[C@H](CO)[C@@H]1CC[C@@H](C)c2c1cc(C)c(O)c2O` [Compound 1, 7,8,18-trihydroxyserrulat-14-ene], the “% Inhibition of Control Values” in test [1] (10 μM) was “significant inhibitory activity”. For the same compound, the inhibition at 10 µM in test [1] (10 μM) is 91%; in test [3], 17%; in test [4], -1%; in test [6], 42%; in [7], -4%; in test [8] it was -3%. Further, the inhibition at 10 µM in test [9] is -1%; in [10] it was 10%. This compound also registered an IC50 in [1] (Table 11, inhibition/concentration-response curve) of 14 µM. The “% Control Response” value in test [2] is reported as 0%; in [5] (10 μM, assay year 2014), “inhibited the activity”. The “% Control Response, agonist (increase in 2-DG uptake relative to insulin response)” value in [11] is reported as −61%. For the same compound, the remaining activity at 10 µM stood at 52% in test [5] (setting [12]) and 27% in [5] (setting [13]).
With `CC(C)=CCC[C@H](C)[C@@H]1CC[C@@H](C)c2c1cc(C)c(O)c2O` [Compound 4, 7,8-dihydroxyserrulat-14-ene], in test [11], the “% Control Response, agonist (increase in 2-DG uptake relative to insulin response)” value is −45%.

Source of the values: patent publication US11331299B2, “Medicinal use of serrulatane diterpenes” (The University of Sydney, priority 2016, dated 2022).
